From US20260001928A1 (CORTERIA PHARMACEUTICALS, priority 2022, published 2026) come the findings set out here.

*1 amine or outer side, *2 acyl side, *3 side chain or, on linkers, in order; H or OH if unused. Where a SMILES comes first, the peptide text is derived from it. Side-chain parts run from the residue outwards. [ ]: non-standard residue; d: D form. The star is where a group is joined. C16 diacid = O=C(O)CCCCCCCCCCCCCCC(=O)*; γGlu = O=C(O)[C@H](CCC(=O)[*:2])N[*:1]; Propionyl = CCC(=O)* Where only a bound is given, the exact number is not on record here.

Assay [1] addresses T1, human CRF2a receptor (Homo sapiens, UniProt Q13324).
T1 construct: expressed in transfected cells; host or cells: TeloHEAC cells
T1 sequence (Q13324 1-411): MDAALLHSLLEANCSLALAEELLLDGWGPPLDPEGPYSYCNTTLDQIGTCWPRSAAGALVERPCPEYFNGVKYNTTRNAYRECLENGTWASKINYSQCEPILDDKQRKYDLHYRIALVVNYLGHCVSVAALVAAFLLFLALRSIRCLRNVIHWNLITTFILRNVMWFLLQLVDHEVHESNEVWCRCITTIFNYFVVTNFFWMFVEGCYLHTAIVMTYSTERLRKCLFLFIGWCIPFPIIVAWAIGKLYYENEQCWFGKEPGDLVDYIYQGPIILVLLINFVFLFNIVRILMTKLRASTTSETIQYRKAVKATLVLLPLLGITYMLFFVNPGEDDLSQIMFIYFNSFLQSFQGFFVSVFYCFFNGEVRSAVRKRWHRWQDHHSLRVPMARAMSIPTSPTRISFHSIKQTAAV
Kind of assay: Activity at human CRF2a receptor, cAMP functional assay in TeloHEAC cells. The following applies: TeloHEAC cells stably expressing human CRF2a receptor, relative to urocortin 2 (100 nM = 100%). The assay is classed as cell-based. As to the method: Agonism of compounds for human corticotropin-releasing factor 2a (CRF2a receptor) was determined by a functional assay measuring cAMP modulation upon treatment of TeloHEAC cells stably expressing human CRF2a receptor. Compounds were dissolved at 0.5 mM in 100% DMSO and serially diluted (1:2) in 100% DMSO for 16 dilutions. 20 nL of each dilution was then transferred to 384-well assay plate using an acoustic droplet ejection instrument. 5 μL of compound buffer (1×HBSS; 20 mM HEPES,) were then added to each well. Prior to use, frozen cells were thawed quickly at 37° C. and washed (5 min at 900 rpm) with 20 mL cell buffer (1×HBSS; 20 mM HEPES). Cells were resuspended in cell buffer added with 2 mM IBMX and adjusted to a cell density of […]. 5 μL cells (final dell density: 10000 cells/well) were dispensed in the compound-containing 384-well assay plate and incubated for 30 minutes 37° C. The cAMP level in treated cells was determined using the Cisbio 62AM4PEC kit according to manufacturer's instruction. Finally, plates were incubated for 1 h at room temperature before measuring the fluorescence ratio between 665/620 nm. The percent activity value (E %) was calculated by setting 100 nM of urocortin 2 (UCN2) as 100%. The in vitro potency of the compounds was quantified by determining the concentrations that caused 50% activation of maximal response (EC50) relative to urocortin 2.

The target in assay [2] is T2, CFR1R receptor (Homo sapiens, UniProt P34998).
T2 construct: host or cells: CHO-K1 (clone 2)
T2 sequence (P34998 24-415): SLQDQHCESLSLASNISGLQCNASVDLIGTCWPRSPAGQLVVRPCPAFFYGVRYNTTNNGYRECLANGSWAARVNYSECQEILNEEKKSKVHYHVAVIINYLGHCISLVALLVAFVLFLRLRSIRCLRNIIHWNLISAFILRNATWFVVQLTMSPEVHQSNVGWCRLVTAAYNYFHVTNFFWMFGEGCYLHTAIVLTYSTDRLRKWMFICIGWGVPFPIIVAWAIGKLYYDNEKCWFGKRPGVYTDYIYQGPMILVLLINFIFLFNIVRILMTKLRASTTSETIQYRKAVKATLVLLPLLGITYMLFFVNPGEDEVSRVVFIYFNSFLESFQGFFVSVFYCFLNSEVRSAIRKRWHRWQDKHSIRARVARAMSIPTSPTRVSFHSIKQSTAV
Description: Activity at anti-target CFR1R receptor, cAMP assay in CRF1R-overexpression CHO-K1 cells. The assay is classed as cell-based. The following applies: 100% = Sauvagine at 100 nM; for EC50: cAMP. The gist of the method: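 Clone 2; cryopreserved stocks (10% DMSO); 4000 cells/well final; 100% activation = Sauvagine 100 nM; otherwise as TeloHAEC protocol.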
Background: Changes in cAMP serve as a functional read-out for many G protein-coupled receptors.

Consider `CCC(=O)N[C@H](C(=O)N[C@@H](CC(C)C)C(=O)N[C@@H](CO)C(=O)N[C@@H](CC(C)C)C(=O)N[C@@H](CC(=O)O)C(=O)N[C@@H](C(=O)N1CCC[C@H]1C(=O)N[C@H](C(=O)N[C@@H](CCCCN)C(=O)N[C@@H](CC(C)C)C(=O)N[C@@H](CCCCNC(=O)CC[C@H](NC(=O)CCCCCCCCCCCCCCC(=O)O)C(=O)O)C(=O)N[C@@H](CCCCN)C(=O)N[C@H](C(=O)N[C@@H](CC(C)C)C(=O)N[C@@H](CC(C)C)C(=O)N[C@@H](CCC(=O)O)C(=O)N[C@@H](CCC(N)=O)C(=O)N[C@@H](CCC(=O)O)C(=O)N[C@@H](CCCCN)C(=O)N[C@@H](CCC(N)=O)C(=O)N[C@@H](CCCCN)C(=O)N[C@@H](CCCCN)C(=O)N[C@@H](CCC(N)=O)C(=O)N[C@@H](CCCNC(=N)N)C(=O)N[C@@H](CCC(=O)O)C(=O)N[C@@H](CCC(N)=O)C(=O)N[C@@H](C)C(=O)N[C@@H](CCC(=O)O)C(=O)N[C@H](C(=O)N[C@@H](CC(N)=O)C(=O)N[C@@H](CCCCN)C(=O)N[C@@H](CCC(N)=O)C(=O)N[C@H](C(=O)N[C@@H](CC(C)C)C(=O)N[C@@H](C)C(=O)N[C@@H](CCC(N)=O)C(=O)N[C@H](C(N)=O)C(C)C)[C@@H](C)CC)[C@@H](C)O)[C@@H](C)CC)[C@@H](C)CC)C(C)C)C(C)C` [compound 35] (Propionyl-VLSLD[dV]PIKLK([γGlu-C16 diacid])KILLEQEKQKKQREQAETNKQILAQV-NH2), for which the EC50 (as a rule, the midpoint of the concentration-response curve) in assay [1] turned out to be 0.23 nM. Moreover, in assay [2], the “Emax (% I)” value was found to be 13 % I and the EC50 is above 250 nM.

Consider `CC[C@H](C)[C@H](NC(C)=O)C(=O)N[C@H](C(=O)N[C@@H](CC(C)C)C(=O)N[C@@H](CO)C(=O)N[C@@H](CC(C)C)C(=O)N[C@@H](CC(=O)O)C(=O)N[C@@H](C(=O)N1CCC[C@H]1C(=O)N[C@H](C(=O)N[C@@H](CCCCN)C(=O)N[C@@H](CC(C)C)C(=O)N[C@@H](CCCCNC(=O)CC[C@H](NC(=O)CCCCCCCCCCCCCCC(=O)O)C(=O)O)C(=O)N[C@@H](CCCCN)C(=O)N[C@H](C(=O)N[C@@H](CC(C)C)C(=O)N[C@@H](CC(C)C)C(=O)N[C@@H](CCC(=O)O)C(=O)N[C@@H](CCC(N)=O)C(=O)N[C@@H](CCC(=O)O)C(=O)N[C@@H](CCCCN)C(=O)N[C@@H](CCC(N)=O)C(=O)N[C@@H](CCCCN)C(=O)N[C@@H](CCCCN)C(=O)N[C@@H](CCC(N)=O)C(=O)N[C@@H](CCCNC(=N)N)C(=O)N[C@@H](CCC(=O)O)C(=O)N[C@@H](CCC(N)=O)C(=O)N[C@@H](C)C(=O)N[C@@H](CCC(=O)O)C(=O)N[C@H](C(=O)N[C@@H](CC(N)=O)C(=O)N[C@@H](CCC(=O)O)C(=O)N[C@@H](CCC(N)=O)C(=O)N[C@H](C(=O)N[C@@H](CC(C)C)C(=O)N[C@@H](C)C(=O)N[C@@H](CCC(N)=O)C(=O)N[C@H](C(N)=O)C(C)C)[C@@H](C)CC)[C@@H](C)O)[C@@H](C)CC)[C@@H](C)CC)C(C)C)C(C)C` [compound 56] (Ac-IVLSLD[dV]PIKLK([γGlu-C16 diacid])KILLEQEKQKKQREQAETNEQILAQV-NH2), for which the 50% effective concentration (EC50) in assay [1] amounted to 0.3 nM. In addition, in assay [2], the “Emax (% I)” value turned out to be 3 % I and the EC50 was above 250 nM.
